The values below come from patent US5532234A, “Use of 1-[4-[4-aryl (or heteroaryl)-1-piperazinyl]-butyl)-1H-azole derivatives for the preparation of medicaments intended for the treatment of disorders of gastric secretion” (Laboratories Del Dr. Esteve, S.A., priority 1993, dated 1996).

The test concerns gastric acid secretion. The test is described as follows: Inhibitory activity on gastric acid secretion, Shay Method (pylorus-ligated rats). The class given is in vivo, male Wistar rats. The following applies: Rattus norvegicus, 2 h, i.d. route, rats, Shay Method, two hours after pylorus ligature; for ED50: read-out: ED50 (inhibition of gastric acid secretion); for inhibition in vivo at 40 mg/kg: intraduodenal, read-out: Percentage of inhibition of gastric acid secretion. The text has this:
Inhibitory activity on gastric acid secretion, Shay Method [Shay, H., Komarov, S. A., Fels, S. S., Merange, D., Grvenstein, M., Siplet, H.: Gastroenterology, 5, 43 (1945)--Visscher, F. E., Seay, P. H., Taxelaar, A. P., Veldhamp, W., Vander Brook, M. J.: J. Pharmac. Exp. Ther., 110, 188 (1954)--"Animal Experiments in Pharmacological Analysis", F. R. Domer; C. C. Thomas Pub, Springfield, Ill., USA, 1970, p. 140].
In this test, male Wistar rats weighing 200 to 250 grams are used, which rats are denied food from the day prior to that of the test, with free access to water. Batches which each contain at least 4 animals are used.
The rats are anesthetized with ethyl ether, a laparotomy is carried out on them and their pylori are ligatured, and then the abdominal incision is stitched up. Administration of the products, with the vehicle for the control batch, is carried out intraduodenally (i.d.) before stitching up the abdominal incision. The dose administered for the first test is 40 mg/kg and the 50% effective dose (ED50) by the i.d. route is also determined in a second test. The vehicle used is 5% w/v gum arabic in doubly-distilled water.
Two hours after ligaturing the pylorus, the rats are sacrificed by prolonged anesthesia with ethyl ether and the volume of the gastric juice is measured and the total acidity is determined using a pH meter equipped with an automatic burette. The percentage of inhibition of the gastric acid secretion is determined, with respect to the control batch, for each product and for each dose tested.
The results obtained for some of the derivatives of the present invention are summarized, as non-limiting examples, in Table II.

In general, ED50 refers to the midpoint of the dose-response relation. In the case of `Cc1nc(Cl)c(Cl)n1CCCCN1CCN(c2ccccc2C#N)CC1` [Example 73], the ED50 was 4.2 mg/kg and the inhibition in vivo at 40 mg/kg turned out to be 90%.
On to `Cc1nc(Cl)c(Cl)n1CCCCN1CCN(c2ccccc2F)CC1` [Example 74], for which the ED50 amounted to 5 mg/kg and the inhibition in vivo at 40 mg/kg was found to be 94%.
The corresponding values for `N#Cc1ccccc1N1CCN(CCCCn2cc(Cl)cn2)CC1` [Example 75] are 8.4 mg/kg and 94%.
In the case of `Cc1nc(Cl)c(Cl)n1CCCCN1CCN(c2cccc(C(F)(F)F)c2)CC1` [Example 76], the ED50 came to 2.1 mg/kg and the inhibition in vivo at 40 mg/kg worked out at 96%.
With `FC(F)(F)c1cccc(N2CCN(CCCCn3cc(Cl)cn3)CC2)c1` [Example 77], the ED50 amounted to 9.2 mg/kg and the inhibition in vivo at 40 mg/kg stood at 82%.
The corresponding values for `Fc1ccccc1N1CCN(CCCCn2cc(Cl)cn2)CC1` [Example 78] are 10 mg/kg and 87%.
For `Clc1cnn(CCCCN2CCN(c3nsc4ccccc34)CC2)c1` [Example 79] the same measures were 20 mg/kg and 82%.
As for `Cc1nc(Cl)c(Cl)n1CCCCN1CCN(c2nsc3ccccc23)CC1` [Example 80], the 50% effective dose (ED50) is 7.1 mg/kg and the inhibition in vivo at 40 mg/kg amounted to 88%.
As to `c1ccc2c(N3CCN(CCCCn4cncn4)CC3)nsc2c1` [Example 81], the ED50 was 5.2 mg/kg and the inhibition in vivo at 40 mg/kg is 82%.
For `c1ccc2c(c1)ncn2CCCCN1CCN(c2nsc3ccccc23)CC1` [Example 82] the same measures were 15 mg/kg and 53%.
